Experimental data published in the supplement of paper PMC11061612.

Experiments:
[1] = compound: C1CC(C1)(C(=O)[O-])C(=O)[O-].N.N.[Pt+2] [Carboplatin]; conditions: max 10 µM
Procedure, shortened: (§1)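 Cancer cell lines in 1536-well plates (7.5 μl DMEM/F12 or RPMI, 10% FBS) were held 24 hours at 37°C and 5% CO2 and then dosed for 72 hours at a final DMSO of typically 0.2%. Viability was taken from CellTiter-Glo 2.0 luminescence, scaled between blank-well and DMSO-well means. Curves were fitted as two-parameter logistic models with a non-linear mixed effects model, from which the single-agent IC50 was taken.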

[2] = compound: C1CN(CCC1(C(=O)N[C@@H](CCO)C2=CC=C(C=C2)Cl)N)C3=NC=NC4=C3C=CN4 [AZD5363]; conditions: max 10 µM
Procedure, shortened: as §1

[3] = compound: C=CCn1c(=O)c2cnc(Nc3ccc(N4CCN(C)CC4)cc3)nc2n1-c1cccc(C(C)(C)O)n1 [AZD1775]; conditions: max 3 µM
Procedure, shortened: as §1

[4] = compound: CC(=O)Nc1cccc(-n2c(=O)n(C3CC3)c(=O)c3c(Nc4ccc(I)cc4F)n(C)c(=O)c(C)c32)c1 [Trametinib]; conditions: max 1 µM
Procedure, shortened: as §1

[5] = compound: CC(=O)O[C@H]1C(=O)[C@@]2(C)[C@H]([C@H](OC(=O)c3ccccc3)[C@]3(O)C[C@H](OC(=O)[C@H](O)[C@@H](NC(=O)c4ccccc4)c4ccccc4)C(C)=C1C3(C)C)[C@]1(OC(C)=O)CO[C@@H]1C[C@@H]2O [Paclitaxel]; conditions: max 3 µM
Procedure, shortened: as §1

[6] = compound: CC(=O)c1c(C)c2cnc(Nc3ccc(N4CCNCC4)cn3)nc2n(C2CCCC2)c1=O [Palbociclib]; conditions: max 10 µM
Procedure, shortened: as §1

[7] = compound: CC(C)n1c(=O)n(C)c2cnc3cc(F)c(-c4ccc(OCCCN5CCCCC5)nc4)cc3c21 [AZD1390]; conditions: max 0.3 µM
Procedure, shortened: as §1

[8] = compound: CC1(C)CCC(CN2CCN(c3ccc(C(=O)NS(=O)(=O)c4ccc(NCC5CCOCC5)c([N+](=O)[O-])c4)c(Oc4cnc5[nH]ccc5c4)c3)CC2)=C(c2ccc(Cl)cc2)C1 [Venetoclax]; conditions: max 1 µM
Procedure, shortened: as §1

[9] = compound: CC1=C(C(=CC=C1)Cl)NC(=O)C2=CN=C(S2)NC3=CC(=NC(=N3)C)N4CCN(CC4)CCO [Dasatinib]; conditions: max 2 µM
Procedure, shortened: as §1

[10] = compound: CC1=CN2[C@@H](C1)C=NC3=CC(=C(C=C3C2=O)OC)OCCCCCOC4=C(C=C5C(=C4)N=C[C@@H]6CC(=CN6C5=O)C)OC [SG3199]; conditions: max 0.001 µM
Procedure, shortened: as §1

[11] = compound: CCN(CCO)CCCOc1ccc2c(Nc3cc(CC(=O)Nc4cccc(F)c4)[nH]n3)ncnc2c1 [AZD2811]; conditions: max 1 µM
Procedure, shortened: as §1

[12] = compound: CCc1c2c(nc3ccc(O)cc13)-c1cc3c(c(=O)n1C2)COC(=O)[C@]3(O)CC [SN-38]; conditions: max 0.3 µM
Procedure, shortened: as §1

[13] = compound: CN(C)CCCOc1ccc(-c2ccc3ncc4c(c3c2)n(C2CCOCC2)c(=O)n4C)cn1 [AZD0156]; conditions: max 3 µM
Procedure, shortened: as §1

[14] = compound: CN(CC[C@H](CSC1=CC=CC=C1)NC2=C(C=C(C=C2)S(=O)(=O)NC(=O)C3=CC=C(C=C3)N4CCC(CC4)[C@H](C5=CC=CC=C5C6=CC=C(C=C6)Cl)O)S(=O)(=O)C(F)(F)F)CCO [AZD4320]; conditions: max 1 µM
Procedure, shortened: as §1

[15] = compound: COc1cc(Nc2ncc3c(n2)-c2ccc(Cl)cc2C(c2c(F)cccc2OC)=NC3)ccc1C(=O)O [Alisertib]; conditions: max 10 µM
Procedure, shortened: as §1

[16] = compound: COc1cc([C@@H]2c3cc4c(cc3[C@@H](O[C@@H]3O[C@@H]5CO[C@@H](C)O[C@H]5[C@H](O)[C@H]3O)[C@H]3COC(=O)[C@H]23)OCO4)cc(OC)c1O [Etoposide]; conditions: max 10 µM
Procedure, shortened: as §1

[17] = compound: COc1cc2ncnc(Nc3ccc(F)c(Cl)c3)c2cc1OCCCN1CCOCC1 [Gefitinib]; conditions: max 10 µM
Procedure, shortened: as §1

[18] = compound: COc1cccc(OCCCN)c1-c1cc(Nc2cnc(C#N)cn2)n[nH]1 [Prexasertib]; conditions: max 1 µM
Procedure, shortened: as §1

[19] = compound: COc1cccc2c1C(=O)c1c(O)c3c(c(O)c1C2=O)C[C@@](O)(C(=O)CO)C[C@@H]3O[C@H]1C[C@H](N)[C@H](O)[C@H](C)O1 [Doxorubicin]; conditions: max 1 µM
Procedure, shortened: as §1

[20] = compound: COc1nnc2ccc(N3CCC(c4ccc(OCCN5CCN(C)C(=O)[C@H]5C)cc4)CC3)nn12 [AZD5153]; conditions: max 1 µM
Procedure, shortened: as §1

[21] = compound: CS(=O)(=O)CCNCc1ccc(-c2ccc3ncnc(Nc4ccc(OCc5cccc(F)c5)c(Cl)c4)c3c2)o1 [Lapatinib]; conditions: max 10 µM
Procedure, shortened: as §1

[22] = compound: C[C@@H](Nc1cc(F)cc(F)c1)c1cc(C(=O)N(C)C)cc2c(=O)cc(N3CCOCC3)oc12 [AZD8186]; conditions: max 10 µM
Procedure, shortened: as §1

[23] = compound: C[C@@H](Oc1cc(-c2cnn(C3CCNCC3)c2)cnc1N)c1c(Cl)ccc(F)c1Cl [Crizotinib]; conditions: max 10 µM
Procedure, shortened: as §1

[24] = compound: C[C@@H](c1ccc2nccn2c1)n1nnc2ncc(-c3cnn(C)c3)nc21 [Savolitinib]; conditions: max 1 µM
Procedure, shortened: as §1

[25] = compound: C[C@@H]1COCCN1C2=NC(=NC(=C2)C3(CC3)[S@](=N)(=O)C)C4=C5C=CNC5=NC=C4 [AZD6738]; conditions: max 10 µM
Procedure, shortened: as §1

[26] = compound: Cc1c2c(nn1C)CSCc1cc(n(C)n1)CSc1cc(c3ccccc3c1)OCCCc1c(C(=O)O)n(C)c3c-2c(Cl)ccc13 [AZD5991]; conditions: max 1 µM
Procedure, shortened: as §1

[27] = compound: Cc1cc2ncnn2cc1Nc1ncc2c(n1)n(C1CCOCC1)c(=O)n2C [AZD7648]; conditions: max 10 µM
Procedure, shortened: as §1

[28] = compound: Cc1nc(-c2cn3c(n2)-c2ccc(-c4cnn(C(C)(C)C(N)=O)c4)cc2OCC3)n(C(C)C)n1 [Taselisib]; conditions: max 10 µM
Procedure, shortened: as §1

[29] = compound: Cn1cnc2c(F)c(Nc3ccc(Br)cc3Cl)c(C(=O)NOCCO)cc21 [Selumetinib]; conditions: max 10 µM
Procedure, shortened: as §1

[30] = compound: N#Cc1cnc(Nc2cc(NC[C@H]3CNCCO3)c(C(F)(F)F)cn2)cn1 [SRA737]; conditions: max 10 µM
Procedure, shortened: as §1

[31] = compound: NC1(c2ccc(-c3nc4ccn5c(=O)[nH]nc5c4cc3-c3ccccc3)cc2)CCC1 [MK-2206]; conditions: max 10 µM
Procedure, shortened: as §1

[32] = compound: Nc1ccn([C@@H]2O[C@H](CO)[C@@H](O)C2(F)F)c(=O)n1 [Gemcitabine]; conditions: max 0.3 µM
Procedure, shortened: as §1

[33] = compound: O=C(Nc1ccc2[nH]nc(-c3ccncc3)c2c1)[C@@H]1CCN(CC(=O)N2CCN(c3ccc(-c4ncccn4)cc3)CC2)C1; conditions: max 5 µM
Procedure, shortened: as §1

[34] = compound: O=C(c1cc(Cc2n[nH]c(=O)c3ccccc23)ccc1F)N1CCN(C(=O)C2CC2)CC1 [Olaparib]; conditions: max 10 µM
Procedure, shortened: as §1

[35] = compound: O=c1[nH]cc(F)c(=O)[nH]1 [5-Fluorouracil]; conditions: max 20 µM
Procedure, shortened: as §1

Row | Cell Line | IC50, cell viability 72 h [1] [nM] | IC50, cell viability 72 h [2] [nM] | IC50, cell viability 72 h [3] [nM] | IC50, cell viability 72 h [4] [nM] | IC50, cell viability 72 h [5] [nM] | IC50, cell viability 72 h [6] [nM] | IC50, cell viability 72 h [7] [nM] | IC50, cell viability 72 h [8] [nM] | IC50, cell viability 72 h [9] [nM] | IC50, cell viability 72 h [10] [nM] | IC50, cell viability 72 h [11] [nM] | IC50, cell viability 72 h [12] [nM] | IC50, cell viability 72 h [13] [nM] | IC50, cell viability 72 h [14] [nM] | IC50, cell viability 72 h [15] [nM] | IC50, cell viability 72 h [16] [nM] | IC50, cell viability 72 h [17] [nM] | IC50, cell viability 72 h [18] [nM] | IC50, cell viability 72 h [19] [nM] | IC50, cell viability 72 h [20] [nM] | IC50, cell viability 72 h [21] [nM] | IC50, cell viability 72 h [22] [nM] | IC50, cell viability 72 h [23] [nM] | IC50, cell viability 72 h [24] [nM] | IC50, cell viability 72 h [25] [nM] | IC50, cell viability 72 h [26] [nM] | IC50, cell viability 72 h [27] [nM] | IC50, cell viability 72 h [28] [nM] | IC50, cell viability 72 h [29] [nM] | IC50, cell viability 72 h [30] [nM] | IC50, cell viability 72 h [31] [nM] | IC50, cell viability 72 h [32] [nM] | IC50, cell viability 72 h [33] [nM] | IC50, cell viability 72 h [34] [nM] | IC50, cell viability 72 h [35] [nM]
1 | ONS-76 (Other Solid Carcinomas) | > 10000 | > 10000 | 1190 | 23.9 | 66.1 | > 10000 | > 300 | > 1000 | > 2000 | > 1 | > 1000 | 43.7 | > 3000 | > 1000 | > 10000 | 8960 | > 10000 | 8.7 | 252 | 940 | > 10000 | > 10000 | > 10000 | > 1000 | 1000 | > 1000 | > 10000 | > 10000 | 1910 | 1690 | > 10000 | 257 | 270 | > 10000 | > 20000
2 | PANC-10-05 (Pancreatic Carcinoma) | > 10000 | > 10000 | 1270 | 438 | 378 | > 10000 | > 300 | > 1000 | 1510 | > 1 | > 1000 | 59.5 | > 3000 | > 1000 | > 10000 | > 10000 | > 10000 | > 1000 | > 1000 | 732 | > 10000 | > 10000 | > 10000 | > 1000 | > 10000 | > 1000 | > 10000 | 7170 | > 10000 | > 10000 | > 10000 | > 300 | 3330 | > 10000 | > 20000
3 | TT (Thyroid Gland Carcinoma) | > 10000 | > 10000 | > 3000 | > 1000 | > 3000 | > 10000 | > 300 | > 1000 | > 2000 | > 1 | > 1000 | 68.8 | > 3000 | > 1000 | > 10000 | > 10000 | > 10000 | 249 | > 1000 | 808 | > 10000 | > 10000 | > 10000 | > 1000 | > 10000 | > 1000 | > 10000 | > 10000 | > 10000 | > 10000 | > 10000 | > 300 | > 5000 | > 10000 | > 20000
4 | U-2-OS (Osteosarcoma) | > 10000 | > 10000 | 1080 | 140 | 162 | > 10000 | > 300 | > 1000 | > 2000 | > 1 | > 1000 | > 300 | > 3000 | > 1000 | > 10000 | > 10000 | > 10000 | 17.4 | > 1000 | > 1000 | > 10000 | > 10000 | > 10000 | > 1000 | > 10000 | > 1000 | > 10000 | > 10000 | > 10000 | 5430 | > 10000 | > 300 | 2130 | > 10000 | > 20000
5 | VCaP (Prostate Carcinoma) | > 10000 | 7960 | 1450 | > 1000 | 22.4 | > 10000 | > 300 | > 1000 | > 2000 | > 1 | > 1000 | 205 | > 3000 | > 1000 | > 10000 | 9350 | > 10000 | 85.4 | > 1000 | 122 | > 10000 | > 10000 | > 10000 | > 1000 | > 10000 | 316 | > 10000 | 3150 | > 10000 | > 10000 | 9700 | 65 | > 5000 | > 10000 | > 20000
